The source of these data is ChEMBL document CHEMBL3507680, “University of Dundee, Gates Library screen for HepG2 cell viability”.

The nature of this series: Human HepG2 cell viability assay in 384 well format. It counts as toxicity, cell-based. Also on record: dose 125 nL, time 70.5 hour; concentration not given beside the values. The note with it: HepG2 cells, read-out: Inhibition.

As to `O=C(NC[C@H]1OC[C@@H](NC2CCOCC2)[C@@H]1O)Nc1ccccc1`, the cytotoxicity at 70.5 h stood at 14.3%.

Take `CN1CCN2C(=O)N(c3ccccc3)C[C@H]2C1`: the cytotoxicity at 70.5 h is -0.222%.

Consider `O=C(NC[C@H]1OC[C@@H](NC2CCOCC2)[C@@H]1O)c1cccs1`, for which the cytotoxicity at 70.5 h was -8.14%.

As to `CC(C)NC(=O)NC[C@H]1OC[C@@H](NCc2ccc(S(C)(=O)=O)cc2)[C@@H]1O`, the cytotoxicity at 70.5 h was -3.26%.

Consider `COCCN1C[C@H]2CN(C(=O)NC(C)C)CCN2C1=O`, for which the cytotoxicity at 70.5 h was -3.98%.

As for `O=C(c1cccnc1)N1CCN2C(=O)N(Cc3ccc(F)cc3)C[C@H]2C1`, the cytotoxicity at 70.5 h came out at 9.22%.

Turning to `CC(=O)N1CCOC[C@H](Oc2ccc(C(F)(F)F)cc2)C1`, the cytotoxicity at 70.5 h was determined as 1.19%.

For `CC(C)CN1CCOC[C@H](Oc2ccc(S(C)(=O)=O)cc2)C1`, the cytotoxicity at 70.5 h turned out to be 13.8%.

Take `Cn1ccnc1CN1C[C@H]2CN(S(=O)(=O)c3ccccc3)CCN2C1=O`: the cytotoxicity at 70.5 h is -2.62%.

With `CN1CCN2C(=O)N(C3CCOCC3)C[C@H]2C1`, the cytotoxicity at 70.5 h was -2.12%.

`Clc1ccc(CN2CCOC[C@H](Oc3cccnc3)C2)cc1`: the cytotoxicity at 70.5 h was -2.34%.

Turning to `FC(F)(F)c1cccc(CN2CCOC[C@H](Oc3cccnc3)C2)c1`, the cytotoxicity at 70.5 h is -1.63%.

For `CS(=O)(=O)NC[C@H]1Cn2c(-c3ccc(F)cc3)cnc2CO1`, the cytotoxicity at 70.5 h was -3.71%.

Regarding `CS(=O)(=O)NC[C@H]1Cn2c(-c3ccc(Cl)cc3)cnc2CO1`, the cytotoxicity at 70.5 h is -7.36%.

On to `O=C(NC[C@H]1Cn2c(-c3ccccc3)cnc2CO1)C1CC1`, for which the cytotoxicity at 70.5 h is -7.19%.

Turning to `CC(C)(C)CN[C@@H]1CO[C@H](CNC(=O)Nc2ccccc2)[C@H]1O`, the cytotoxicity at 70.5 h was -1.92%.

For the compound `c1cc(CN2CCOC[C@H]2c2nc(-c3ccncc3)c[nH]2)ccn1`, the cytotoxicity at 70.5 h is 1.86%.

On to `CC(C)(C)c1c[nH]c([C@@H]2COCCN2C2CCCCC2)n1`, for which the cytotoxicity at 70.5 h was -0.143%.

As for `c1cncc(-c2c[nH]c([C@@H]3COCCN3Cc3ccncc3)n2)c1`, the cytotoxicity at 70.5 h stood at 1.27%.

For the compound `CC(=O)N1CCC(N2CCOC[C@H]2c2nc(-c3ccncc3)c[nH]2)CC1`, the cytotoxicity at 70.5 h is -0.136%.

Consider `O=C1CCC2(CCCN(C(=O)c3cccs3)C2)N1` (stereo not drawn), for which the cytotoxicity at 70.5 h came to 35.1%.

Regarding `CC(=O)N1CCC2(CC1)CN(C(=O)c1ccc3c(c1)OCO3)C2`, the cytotoxicity at 70.5 h came to 5.17%.

Consider `CNC(=O)CN1C(=O)CCC12CCCN(Cc1ccccc1F)C2` (stereo not drawn), for which the cytotoxicity at 70.5 h came to 6.16%.

In the case of `CNC(=O)CN1C(=O)CCC12CCCN(Cc1ccccn1)C2` (stereo not drawn), the cytotoxicity at 70.5 h was determined as 2.52%.

On to `O=C(N[C@]12CC1CN(C(=O)c1ccco1)C2)c1ccoc1` (stereo partly drawn), for which the cytotoxicity at 70.5 h is -7.38%.

In the case of `CC(C)CN1C[C@@H]2C(=O)NC3(CCN(C(=O)c4cccnc4)CC3)[C@@H]2C1`, the cytotoxicity at 70.5 h is -9.79%.

As for `O=S(=O)(c1ccc(Cl)cc1)N1C[C@@H]2CCN[C@@H]2C1`, the cytotoxicity at 70.5 h is -6.26%.

On to `CNC(=O)CN1C(=O)CCC12CCCN(CCc1ccccc1)C2` (stereo not drawn), for which the cytotoxicity at 70.5 h amounted to 27.8%.

Take `O=C(CC1CCCC1)N1C[C@@H]2C[C@H]1CN2`: the cytotoxicity at 70.5 h was -3.6%.

As to `COCCN1C[C@@H]2CN(S(=O)(=O)c3cccs3)C[C@@H]2C1=O`, the cytotoxicity at 70.5 h is -8.88%.

On to `CC(C)CN1C[C@@H]2CN(S(=O)(=O)c3cccs3)C[C@@H]2C1=O`, for which the cytotoxicity at 70.5 h was -10.3%.

Consider `O=C(c1cc(F)cc(F)c1)N1C[C@H]2CNC[C@H]2C1`, for which the cytotoxicity at 70.5 h was -13.4%.

Consider `CCN1C(=O)CC[C@@H]2[C@H]1CCN2S(=O)(=O)c1cccs1`, for which the cytotoxicity at 70.5 h was -4.53%.

For the compound `O=C1[C@H]2CN(S(=O)(=O)c3cccs3)C[C@H]2CN1CC1CC1`, the cytotoxicity at 70.5 h was -2.27%.

With `C[C@H]1C[C@H]2CN(C(=O)C3=CCCC3)CC[C@H]2O1`, the cytotoxicity at 70.5 h was -9.81%.

For the compound `CC(C)CNC(=O)N1C[C@@H]2CCCN[C@@H]2C1`, the cytotoxicity at 70.5 h was -8.84%.

Consider `CC(C)C(=O)N1CCC2(CC1)NC(=O)[C@H]1CN(C(=O)N(C)C)C[C@H]12`, for which the cytotoxicity at 70.5 h was -11.8%.

As for `CC(=O)N1CCCC2(CCN(C(=O)c3nccnc3N)CC2)C1`, the cytotoxicity at 70.5 h turned out to be 26.1%.

Take `CC(=O)N1CCCC2(C1)CN(C(=O)C1CCCCC1)CCO2` (stereo not drawn): the cytotoxicity at 70.5 h worked out at 23.5%.

Turning to `CC(=O)N1CCC2(CCCN(C(=O)CCN3CCCCC3)C2)C1` (stereo not drawn), the cytotoxicity at 70.5 h was determined as 20.2%.

Take `CC(=O)N1CCCC2(CCN(c3ccccc3)C2=O)C1` (stereo not drawn): the cytotoxicity at 70.5 h came to 12.8%.

With `CN(C)C(=O)CN1CCC2(CCN(C(=O)N(C)C)CC2)C1=O`, the cytotoxicity at 70.5 h came to 17%.

Take `CCOCC(=O)N1CCCC2(CCN(c3ccccc3)C2=O)C1` (stereo not drawn): the cytotoxicity at 70.5 h was -8.08%.

Take `CN1C(=O)CCC12CCN(Cc1ccco1)CC2`: the cytotoxicity at 70.5 h was -12.2%.

For the compound `CC(C)NC(=O)N1CCCC2(CCN(c3ccccc3)C2=O)C1` (stereo not drawn), the cytotoxicity at 70.5 h was -7.73%.

Consider `O=C(c1ccc[nH]1)N1CCOCC2(C1)CN(c1ccccc1)C(=O)CO2` (stereo not drawn), for which the cytotoxicity at 70.5 h is -9.1%.

As to `CC(C)CCN1C2(CCN(C(=O)C3(C)CC3)C2)c2ccccc2S1(=O)=O` (stereo not drawn), the cytotoxicity at 70.5 h was -9.44%.

For `CS(=O)(=O)N1CCc2sc(C(=O)NCCc3ccccn3)cc21`, the cytotoxicity at 70.5 h is -10.9%.

`CN(C)C(=O)CNC(=O)c1cc2c(s1)CCN2S(C)(=O)=O`: the cytotoxicity at 70.5 h was -10.7%.

Consider `COCCNC(=O)c1cc2c(s1)CCN2S(C)(=O)=O`, for which the cytotoxicity at 70.5 h is -6.66%.

With `CC(C)NC(=O)NC[C@@]1(COc2cnccn2)C[C@@H](O)[C@@H](O)C1`, the cytotoxicity at 70.5 h is 3.08%.

On to `C[C@@H](NC(=O)c1cnccn1)c1c(-c2ccc(Cl)cc2)noc1C(=O)O`, for which the cytotoxicity at 70.5 h is -5.53%.

As for `O=C(NCC1CCC2(CCNCC2)O1)C1CC1` (stereo not drawn), the cytotoxicity at 70.5 h worked out at 2.18%.

`O=C(NCC1CCCCC1)N1C[C@@H]2C[C@H]1CN2`: the cytotoxicity at 70.5 h is -7.03%.

For the compound `CN(Cc1ccco1)C1CCC12CCN(C(=O)C1CCOCC1)CC2` (stereo not drawn), the cytotoxicity at 70.5 h is -3.65%.

On to `CN(Cc1ccco1)C1CCC12CCN(C(=O)N1CCCC1)CC2` (stereo not drawn), for which the cytotoxicity at 70.5 h was -7.66%.

Take `COCc1nn(CC2CC2)c2c1CN(Cc1ccco1)CC2`: the cytotoxicity at 70.5 h was -8.39%.

`O=C1CC2(CNCCN(C(=O)Nc3ccccc3)C2)CN1` (stereo not drawn): the cytotoxicity at 70.5 h is -9.89%.

Turning to `Cc1ccc(CN2CCCC3(CCC(=O)N3)CC2)s1` (stereo not drawn), the cytotoxicity at 70.5 h was -7.87%.

For the compound `CN1C(=O)C2(CCN(Cc3nccn3C)CC2)c2ccccc21`, the cytotoxicity at 70.5 h was -4.36%.

Regarding `O=C(c1ccco1)N1C[C@@H]2CN(c3ccccn3)C[C@@H]2C1`, the cytotoxicity at 70.5 h was -0.814%.

For the compound `CCN1CCC12CCN(C(=O)c1cc(C)on1)C2` (stereo not drawn), the cytotoxicity at 70.5 h is -2.64%.

As to `Cc1cc(C(=O)N2CCC3(CCN3Cc3ccc(F)cc3)C2)no1` (stereo not drawn), the cytotoxicity at 70.5 h was -3.92%.

Regarding `O=C1CCC2(CCCN(Cc3ccccc3F)C2)N1CC1CC1` (stereo not drawn), the cytotoxicity at 70.5 h is -2.34%.

As for `O=S(=O)(c1cccs1)N1CC[C@H]2[C@H]1CCN2c1ncccn1`, the cytotoxicity at 70.5 h is -4.67%.

Regarding `CCN1CC[C@@]2(C(=O)N3CCOCC3)CCN(C(=O)CC(C)C)CC[C@@H]12`, the cytotoxicity at 70.5 h was -2.66%.

Take `CC(C)CN1CC[C@@H]2[C@@H]1CCN2S(=O)(=O)c1cccs1`: the cytotoxicity at 70.5 h was -18%.

On to `CCN1C(=O)C(c2ccccc2)CC12CCN(CCO)CC2` (stereo not drawn), for which the cytotoxicity at 70.5 h was -13.9%.

Take `COCc1nn(C)c2c1CCN(Cc1cnn(C)c1)C2`: the cytotoxicity at 70.5 h is -5.93%.

On to `CCN1CC[C@@]2(C(=O)N3CCCC3)CCN(S(C)(=O)=O)CC[C@@H]12`, for which the cytotoxicity at 70.5 h was -8.95%.

With `CCN1CC[C@@]2(C(=O)N(C)C)CCN(C(=O)Cc3ccccc3)CC[C@@H]12`, the cytotoxicity at 70.5 h is -8.1%.

As for `CCN1CC[C@@]2(C(=O)N3CCOCC3)CCN(S(=O)(=O)CC)CC[C@@H]12`, the cytotoxicity at 70.5 h came out at 3.2%.

Take `COCCN1CCC2(CC1)CN(C(=O)c1cccs1)CCO2`: the cytotoxicity at 70.5 h was 33.9%.

Regarding `CN(C)C(=O)CN1CCC2(CCN(CC3CC3)CC2)C1=O`, the cytotoxicity at 70.5 h was 9.87%.

As to `c1coc(CN2CCC3(CC2)COC(COCC2CC2)C3)c1` (stereo not drawn), the cytotoxicity at 70.5 h was 15.1%.

As to `CN1C(=O)CCCC12CCCN(Cc1cccs1)C2` (stereo not drawn), the cytotoxicity at 70.5 h is -6.68%.

As for `COCCN1CCC2(CC1)CN(C(=O)c1ccccc1)CCO2`, the cytotoxicity at 70.5 h is -5.3%.

On to `CN(C)CC(=O)N1CCCC2(CCN(c3ccccc3)C2=O)C1` (stereo not drawn), for which the cytotoxicity at 70.5 h was -9.67%.

Take `N#Cc1ccc(C(=O)N2CC[C@H]3[C@H]2CCN3CC2CC2)cc1`: the cytotoxicity at 70.5 h is -10.6%.

Regarding `C[C@@H]1CN(CCc2ccccc2)C[C@]12CCN(CC(=O)N(C)C)C2=O`, the cytotoxicity at 70.5 h was -12.6%.

In the case of `O=C(Cc1cccc(F)c1)N1C[C@H]2CN(Cc3ccccn3)C[C@H]2C1`, the cytotoxicity at 70.5 h is -6.98%.

Consider `COCCC(=O)N1CCOCC2(CCN(Cc3cccs3)C2)C1` (stereo not drawn), for which the cytotoxicity at 70.5 h was -12.3%.

For `CC1c2ncc(CNC(=O)C3CC3)n2CCN1CC1CCC1` (stereo not drawn), the cytotoxicity at 70.5 h was -10.3%.

Take `CC(C)C(=O)NC1COC2(CCN(Cc3cccnc3)CC2)C1` (stereo not drawn): the cytotoxicity at 70.5 h was -10.3%.

`CCN1C(=O)C(c2ccccc2)CC12CCN(Cc1cccnc1)CC2` (stereo not drawn): the cytotoxicity at 70.5 h was -7.6%.

On to `COc1ccc(CN2C[C@H]3C[C@H](CN(C)C)O[C@H]3C2)cc1`, for which the cytotoxicity at 70.5 h was -5.86%.

In the case of `Cc1cnc(N2CC3(CCN(Cc4cccnc4)C3)C2)nc1`, the cytotoxicity at 70.5 h is -13.4%.

On to `COCCN1CCC2(CC1)CN(C(=O)Cc1cccnc1)CCO2`, for which the cytotoxicity at 70.5 h was -5.95%.

As to `O=C1[C@H]2CN(Cc3ccccc3)C[C@H]2CN1CCN1CCCC1`, the cytotoxicity at 70.5 h was -8.49%.

With `Fc1cccc(CN2C[C@@H]3CN(Cc4ccccn4)C[C@@H]3C2)c1`, the cytotoxicity at 70.5 h was -5.09%.

Consider `O=C1[C@H]2CN(Cc3ccc(F)cc3)C[C@H]2CN1CCN1CCCC1`, for which the cytotoxicity at 70.5 h turned out to be 12.5%.

On to `Cc1ccc(CN2Cc3ccnn3CC(C(=O)NCC3CC3)C2)o1` (stereo not drawn), for which the cytotoxicity at 70.5 h was -13.3%.

In the case of `CN(C)CCN1CCOCC12CCN(C(=O)C1CC1)CC2`, the cytotoxicity at 70.5 h was -10.1%.
